Patent US9399649B2, “Compounds for treating spinal muscular atrophy” (PTC Therapeutics Inc., priority 2012, dated 2016)

Assays:
[1] = system: full length and Δ7 SMN2 mRNA; assay: Endogenous SMN2 mRNA RT-qPCR splicing assay in cultured cells; format: cell-based, human; conditions: Type 1 SMA patient fibroblasts (GM03813), increasing concentrations, 24 hr, FIG. 4
Experimental: The reverse transcription-quantitative PCR-based (RT-qPCR) assay is used to quantify the levels of the full length and Δ7 SMN2 mRNA in primary cells and cell lines containing the SMN2 gene treated with a test compound.
GM03813 SMA patient cells (5,000 cells/well) are seeded in 200 μL, of cell culture medium (DMEM plus 10% FBS) in 96-well flat-bottom plates and the plate is immediately swirled to ensure proper dispersal of cells, forming an even monolayer of cells. Cells are allowed to attach for at least 4-6 hrs. Test compounds are serially diluted 3.16-fold in 100% DMSO to generate a 7-point concentration curve. A solution of test compound (1 μL, 200× in DMSO) is added to each test well and 1 μL, DMSO is added to each control well. The plate is incubated for 24 hrs in a cell culture incubator (37° C., 5% CO2, 100% relative humidity). The cells are then lysed in Cells-To-Ct lysis buffer and the lysate is stored at 80° C.
SMN2-specific spliced products and GAPDH mRNA are identified using the following primers and probes in Table 5. Primer SMN FL Forward B (SEQ ID NO. 7) hybridizes to a nucleotide sequence in exon 7 (nucleotide 32 to nucleotide 54) and exon 8 (nucleotide 1 to nucleotide 4), primer SMN Δ7 Forward B (SEQ ID NO. 8) hybridizes to a nucleotide sequence in exon 6 (nucleotide 87 to nucleotide 111) and exon 8 (nucleotide 1 to nucleotide 3), primer SMN Reverse B (SEQ ID NO. 9) hybridizes to a nucleotide sequence in exon 8 (nucleotide 39 to nucleotide 62), probe SMN Probe B (SEQ ID NO. 10) hybridizes to a nucleotide sequence in exon 8 (nucleotide 7 to nucleotide 36). These primers and probe hybridize to nucleotide sequences common to human SMN1 and SMN2 mRNA. Since the SMA patient cells used in Example 3 contain only the SMN2 gene, RT-qPCR can quantify only SMN2 full-length and Δ7 mRNA.
The SMN forward and reverse primers are used at final concentrations of 0.4 μM. The SMN probe is used at a final concentration of 0.15 μM. GAPDH primers are used at final concentrations of 0.1 μM and the probe at 0.075 μM. The One-Step RT-PCR kit was used as the Real-Time PCR Mix. […]
The increase of SMN2 FL and decrease in SMN2 Δ7 mRNA relative to those in cells treated with vehicle control are determined from real-time PCR data using a modified ΔΔCt method (as described in Livak and Schmittgen, Methods, 2001, 25:402-8). The amplification efficiency (E) is calculated from the slope of the amplification curve for SMN2 FL, SMN2 Δ7, and GAPDH individually. The abundances of SMN2 FL, SMN2 Δ7, and GAPDH are then calculated as (1+E)^−Ct, where Ct is the threshold value for each amplicon. […]

[2] = system: SMA Δ7 homozygous knockout mice; assay: Survival of neonatal Δ7 SMA mice; format: in vivo; conditions: IP QD PND 3 to PND 23, then orally BID from PND 24 until study end, FIG. 15
Experimental: The change in the number of surviving mice over time is used to determine whether treatment with a test compound improves survival.
SMA Δ7 homozygous knockout mice are dosed intraperitoneally (IP) with test compound or vehicle (100% DMSO) QD from PND 3 until the dose regimen is switched to an oral dose BID in 0.5% hydroxypropylmethyl cellulose (HPMC) with 0.1% Tween-80 at a dose 3.16-fold higher than the dose used for IP and later switched to an oral dose QD in 0.5% hydroxypropylmethyl cellulose (HPMC) with 0.1% Tween-80 at a dose 6.32-fold higher than the dose used for IP. The number of surviving mice in each group is recorded every day and plotted as a percent of total number of mice. Tissues of SMA Δ7 and age-matched heterozygous mice are collected for the measurement of Smn protein levels and processed as detailed in Example 10. The total protein normalized Smn protein levels measured in the tissues are plotted as a percent of those in the age-matched heterozygous mice tissues, with the Smn level in heterozygous mice set to 100 percent. The level of Smn protein in the test compound treated mice tissue relative to that in heterozygous mice tissue is indicated as a percent value above each bar in the graph.

SMILES	SMN2 FL mRNA relative to vehicle [1]	SMN2 Δ7 mRNA relative to vehicle [1]	survival [2]
Cc1cn2cc(-c3cc4ccc(N5CCN(C)CC5)cc4c(=O)o3)nc2c(C)n1 [Cpd 65, 3-(6,8-dimethylimidazo[1,2-a]pyrazin-2-yl)-7-(4-methylpiperazin-1-yl)-1H-isochromen-1-one]	progressively more SMN2 FL mRNA	less SMN2 Δ7 mRNA	improved compared to vehicle treated mice
Cc1cn2cc(-c3cc4ccc(N5CCN6CCC[C@H]6C5)cc4c(=O)o3)nc2c(C)n1 [Cpd 69, 3-(6,8-dimethylimidazo[1,2-a]pyrazin-2-yl)-7-[(8aS)-hexahydropyrrolo[1,2-a]pyrazin-2(1H)-yl]-1H-isochromen-1-one]	progressively more SMN2 FL mRNA	less SMN2 Δ7 mRNA	improved compared to vehicle treated mice
